Assay results as given in patent publication US20200399238A1, “THERAPEUTIC AURONES” (MIDDLE TENNESSEE STATE UNIVERSITY, priority 2016, published 2020).

Key:
[1] = tested on: Leishmania amazonensis promastigotes expressing beta-lactamase; assay: microbe, parasite or virus in culture; assay type: cell-based; conditions: Leishmania amazonensis, read-out: IC50 L. amaz.
[2] = tested on: rat skeletal muscle cell line, L6; assay: cells; assay type: cell-based; conditions: Rattus norvegicus; Table 1; read-out: IC50 Toxicity (L6)
[3] = tested on: S. cerevisiae; assay: Antifungal microdilution broth assay, S. cerevisiae; assay type: cell-based; conditions: Saccharomyces cerevisiae; Table 5
Description: A microdilution broth method (CLSI, Reference Method for Broth Dilution Antifungal Susceptibility Testing of Yeasts, Approved Standard-Third Edition, Clinical Laboratory Standards Institute, Wayne, Pa., 2008) was followed with some modifications for the testing of potential antifungal compounds Corning CellGro RPMI 1640 with glutamine, without bicarbonate buffer, with phenol red (RPMI; Sigma-Aldrich) was used as the base medium for testing. A 1 M solution of morpholinepropanesulfonic acid (MOPS; Sigma-Aldrich) was added to the RPMI to a final concentration of 0.165 M for buffering (RPMI-MOPS). This medium was adjusted to a pH of 7.0 with 10 M NaOH and filter sterilized.
PrestoBlue® (Life Technologies, Invitrogen, Carlsbad, Calif.), a resazurin-based cell viability reagent that, in metabolically active cells, is reduced from blue, non-fluorescent resazurin, to red, fluorescent resorufin, was used to assess inhibition of yeast growth by the aurones. Reduction of the compound from resazurin to resorufin is proportional to the number of metabolically active cells and can be quantified by measuring relative fluorescence units (RFUs). […]
IC50 determination was calculated using GraphPad Prism version 7.01 for Windows (GraphPad Software, Inc., La Jolla, Calif.) from the RFUs at dilution points. […]

[4] = tested on: PMA-differentiated THP-1 cells; assay: Alamar Blue cell viability assay, THP-1; assay type: cell-based, human
Description: THP-1 cells were maintained in RPMI 1640 medium supplemented with 10% heat-inactivated FBS and 1% penicillin/streptomycin (complete culture medium) at 37° C. with 5% CO2 supplemented. Cell concentrations were adjusted to desired concentrations for each experiment by centrifugation at 500×g for 5 min and resuspended in complete culture medium with 100 nM of PMA. Cell concentration was adjusted to 5×10^5 cells/ml for all assays with the exception of 2.5×10^5 cells/ml were used for NF-κB nuclear translocation assay. Cells were seeded onto 96-, 24-, or 12-well plates and incubated for 48 to 72 h to allow for differentiation. Cells were washed with serum-free RPMI 1640 medium before each experiment to remove undifferentiated cells. […] Cells were seeded into tissue culture plates at 10% confluence and grown to 80% confluence within 72 h. For live cell microscopy, 1×10^5 cells/ml were seeded into 35 mm glass-bottom (MatTek) dishes 24 h prior to imaging. For luciferase assays, 1.2×10^5 cells/well were seeded into 24-well tissue culture-treated plates.
Following treatment, the relative cell viability was measured by Alamar Blue assay. For Alamar Blue assays, supernatants were replaced with culture medium containing 1× Alamar Blue reagent and incubated overnight. Cell viability was assessed by measuring relative fluorescent units (RFU) on the SpectraMax M2e microplate reader (Molecular Devices Inc., Sunnyvale, Calif., USA) at Ex 560 nm and Em 590 nm. The results were expressed as a percentage relative to LPS alone control cells. The effects of the vehicle control, DMSO, on cell viability were also assessed.
Dexamethasone is a synthetic glucocorticoid that suppresses LPS-induced pro-inflammatory cytokine expression and was used as a control (Abraham, Lawrence et al. 2006). Supernatants were collected for human cytokine ELISAs and the manufacturer's protocol was followed to assess the cytokine response. Cells remaining after the supernatant collection were tested for relative viability by Alamar Blue cytotoxicity assay as previously described.

[5] = tested on: IKKβ, IκBα, p65; assay: Western blot, IKK / IκBα / p65 phosphorylation, RAW 264.7; conditions: 12.5, 25, 50 μM, LPS 15 min, dose-dependent
Description: U0126 is a compound that inhibits MEK1/2 and was used as positive control for ERK phosphorylation inhibition (Hotokezaka, Sakai et al. 2002). Cells were lysed with radio-immunoprecipitation assay (RIPA) lysis buffer that contained a protease and phosphatase inhibitor cocktail. Cell lysates were then tested for protein concentration using a BCA protein assay and diluted with RIPA lysis buffer to normalize protein concentration in all samples. Lysates were mixed with sample loading buffer containing bromophenol blue, glycerol, SDS, and 2-mercaptoethanol. The separated proteins were then transferred onto a nitrocellulose membrane and blocked with 5% BSA in IX Tris-buffered saline with 0.1% Tween-20 for 1 h. The blots were incubated with primary antibodies at 4° C. overnight followed by incubation with HRP-conjugated secondary antibodies for 2 h at 22° C. The membranes were developed by addition of ECL substrate and images were collected with a ChemiDoc XRS+ system chemiluminescence imager (Bio-Rad, Hercules, Calif., USA). Western blot band intensity was quantified using Image Lab software (Bio-Rad, Hercules, Calif., USA). […]

Row | Structure (SMILES) | IC50 [1] [µM] | IC50 [2] [µM] | IC50 [3] [µM] | THP-1 cell viability (Alamar Blue) ([4]; 100 μM with LPS) | THP-1 cell viability (Alamar Blue) ([4]; 20, 40, 80 μM with LPS for 4 h) | Average % Viability (4 h with LPS) ([4]; THP-1 cells, 20 μM, 4 h with LPS, mean ± SD) [%] | phosphorylation of IKKβ, IκBα and p65 [5]
1 | COc1ccc(/C=C2\Oc3c(ccc(O)c3O)C2=O)cc1O [Aurone 1009, (Z)-6,7-dihydroxy-2-(3-hydroxy-4-methoxybenzylidene)benzofuran-3(2H)-one] | 9.63 | 45 | 26 | – | – | – | –
2 | O=C1/C(=C/c2ccc(CO)o2)Oc2ccccc21 [aurone 1] | – | – | – | less than 90% | no effect on cell viability | 96.0 ± 0.6 | suppress the phosphorylation of all three proteins
